Experimental findings from US5760027A, “Use of 7-alkylidene cephalosporins to inhibit elastase activity” (Research Corporation Technologies, Inc., priority 1996, dated 1998) are described below.

Holding throughout (type): biochemical
Test [1] concerns the target T1, human leukocyte elastase (HLE) (Homo sapiens, UniProt P08246).
T1 construct: purchased Elastin Products Company, Inc. (Owensville, Mo.)
T1 sequence (P08246 30-267): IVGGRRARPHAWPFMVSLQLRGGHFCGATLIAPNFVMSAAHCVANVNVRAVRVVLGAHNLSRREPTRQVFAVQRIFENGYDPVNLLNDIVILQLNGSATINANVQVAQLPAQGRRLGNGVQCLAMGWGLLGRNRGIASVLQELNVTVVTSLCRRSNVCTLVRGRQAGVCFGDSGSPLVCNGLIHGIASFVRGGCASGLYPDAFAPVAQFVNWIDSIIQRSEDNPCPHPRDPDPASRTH
Description: IC50 determination, inhibition of human leukocyte elastase (HLE), hydrolysis of N-(methoxysuccinyl)-L-alanyl-L-alanyl-L-prolyl-L-valine 4-nitroanilide at 410 nm. Conditions: 5 min incubation with the inhibitor; pH 7.5 Tris buffer.

In test [2] the target is porcine pancreatic elastase (PPE) (Sus scrofa, UniProt P00772). Description: IC50 determination, inhibition of porcine pancreatic elastase (PPE). Particulars: 5 min incubation with the inhibitor.
Sequence of porcine pancreatic elastase (PPE) (P00772 27-266): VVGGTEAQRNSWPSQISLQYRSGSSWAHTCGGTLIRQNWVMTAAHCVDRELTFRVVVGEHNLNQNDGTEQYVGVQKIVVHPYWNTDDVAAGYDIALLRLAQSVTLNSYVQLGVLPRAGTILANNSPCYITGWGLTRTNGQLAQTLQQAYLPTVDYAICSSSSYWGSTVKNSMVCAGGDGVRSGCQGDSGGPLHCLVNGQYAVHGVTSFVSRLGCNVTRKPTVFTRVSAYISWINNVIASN
In a further test the target is T2, HLE (Homo sapiens, UniProt P08246).
T2 construct: chromogenic substrate MeOSuc-AAPV-pNA
T2 sequence (P08246 30-267): T1 sequence (P08246 30-267)
Description: inhibition of HLE followed as a function of time (FIG. 1). Particulars: 10-fold molar excess of inhibitor, assayed at regular intervals (2 to 5 minutes). The procedure:
To further document the rapid, irreversible inhibition of this enzyme at low, nearly stoichiometric ratios of inhibitor to enzyme, for selected compounds, this inhibition was followed as a function of time.
The data in FIG. 1 were generated by incubating the enzyme with a 10-fold molar excess of inhibitor. Assays of residual enzymatic activity of this mixture were assayed at regular intervals (2 to 5 minutes).

Molecules are shown by their SMILES. A value given as a limit tells only on which side of the number the result lay.

As for `CC(=O)OCC1=C(C(=O)OC(c2ccccc2)c2ccccc2)N2C(=O)/C(=C/c3ccccc3)[C@H]2SC1` [Compound 9, benzhydryl 7-[(Z)-benzylidene] cephalosporanate], the half-maximal inhibitory concentration (IC50) in test [1] and in test [2] was more than 10 µM throughout.

As to `CC(=O)OCC1=C(C(=O)OC(c2ccccc2)c2ccccc2)N2C(=O)/C(=C/C(=O)OC(C)(C)C)[C@H]2SC1` [Compound 17, Benzhydryl 7-[(Z)-t-butoxycarbonylmethylene]cephalosporanate], in test [1], the IC50 was more than 10 µM.

Consider `CO[C@H]1C(=O)N2C(C(=O)OC(c3ccccc3)c3ccccc3)=C(COC(C)=O)CS(=O)(=O)[C@H]12` [Compound 37, reference compound], for which the IC50 in test [1] is 0.28 µM.

As for `CC(=O)OCC1=C(C(=O)OC(c2ccccc2)c2ccccc2)N2C(=O)C(=C(Cl)Cl)[C@H]2SC1` [Compound 22, Benzhydryl 7-[dichloromethylene]cephalosporanate], the results for the IC50 in test [1] and in test [2] were 6.41 µM and more than 10 µM, respectively. Besides, the “residual HLE activity / inhibition as a function of time” value (“residual HLE activity / inhibition” for short) on HLE was “very potent, irreversible inhibitors of HLE”.

For the compound `CC(=O)OCC1=C(C(=O)OC(c2ccccc2)c2ccccc2)N2C(=O)C[C@H]2SC1` [Compound 33, reference compound], the IC50 in test [1] and in test [2] was more than 10 µM throughout.

On to `CON(C)C(=O)/C=C1/C(=O)N2C(C(=O)OC(c3ccccc3)c3ccccc3)=C(COC(C)=O)CS(=O)(=O)[C@H]12` [Compound 27, Benzhydryl 7-[(Z)-N-methoxy-N-methylaminocarbonylmethylene]cephalosporanatesulfone], for which the IC50 in test [1] and in test [2] was more than 10 µM each time.

Take `CC(=O)OCC1=C(C(=O)OC(c2ccccc2)c2ccccc2)N2C(=O)/C(=C/CO)[C@H]2SC1` [Compound 26, Benzhydryl 7-[(Z)-(hydroxymethyl)methylene]cephalosporanate]: the concentration for half-maximal inhibition (IC50) in test [1] and in test [2] was more than 10 µM throughout.

On to `CC(=O)OCC1=C(C(=O)OC(c2ccccc2)c2ccccc2)N2C(=O)C(=C(Cl)Cl)[C@H]2S(=O)(=O)C1` [Compound 23, Benzhydryl 7-[dichloromethylene]cephalosporanate sulfone], for which the results for the IC50 in test [1] and in test [2] were 2.56 µM and more than 10 µM, respectively.

With `CC(=O)OCC1=C(C(=O)OC(c2ccccc2)c2ccccc2)N2C(=O)C(=C=CBr)[C@H]2SC1` [Compound 6, Benzhydryl 7-(-bromovinylidene)cephalosporanate], the values for the IC50 in test [1] and in test [2] were 5.4 µM and more than 10 µM, respectively.

As to `CC(=O)OCC1=C(C(=O)OC(c2ccccc2)c2ccccc2)N2C(=O)/C(=C\Br)[C@H]2SC1` [Compound 15, Benzhydryl 7-[(E)-bromomethylene]cephalosporanate], the values for the IC50 in test [1] and in test [2] were 0.39 µM and 9.6 µM, respectively. Further, the “residual HLE activity / inhibition” value at HLE is listed as “very potent, irreversible inhibitors of HLE”.

For `CC(=O)OCC1=C(C(=O)OC(c2ccccc2)c2ccccc2)N2C(=O)/C(=C\c3ccccc3)[C@H]2SC1` [Compound 11, Benzhydryl 7-[(E)-benzylidene]cephalosporanate], the IC50 in test [1] and in test [2] was more than 10 µM throughout.

With `C=C=C1C(=O)N2C(C(=O)OC(c3ccccc3)c3ccccc3)=C(COC(C)=O)CS(=O)(=O)[C@H]12` [Compound 8, Benzhydryl 7-vinylidenecephalosporanate sulfone], the figures for the IC50 in test [1] and in test [2] were 6.1 µM and 4.1 µM, respectively.

`CC(=O)OCC1=C(C(=O)OC(c2ccccc2)c2ccccc2)N2C(=O)/C(=C/C#N)[C@H]2S(=O)(=O)C1` [Compound 31, Benzhydryl 7-[(Z)-cyanomethylene]cephalosporanate sulfone] came in with an IC50 in test [1] of 0.49 µM.

`CC(=O)OCC1=C(C(=O)OC(c2ccccc2)c2ccccc2)N2C(=O)[C@@H](N)[C@H]2SC1` [Compound 1, Benzhydryl 7β-aminocephalosporanate]: the IC50 in test [1] and in test [2] was more than 10 µM throughout.

As for `CC(=O)OCC1=C(C(=O)OC(c2ccccc2)c2ccccc2)N2C(=O)C(=C=CC(C)(C)C)[C@H]2S(=O)(=O)C1` [Compound 5a, Benzhydryl 7-t-butylvinylidene cephalosporanate sulfone], the IC50 in test [1] is 10.5 µM; in test [2] it was more than 10 µM.

In turn, `[2H]C(=C=C1C(=O)N2C(C(=O)OC(c3ccccc3)c3ccccc3)=C(COC(C)=O)CS(=O)(=O)[C@H]12)C(C)(C)C` [Compound 5b] yielded an IC50 in test [1] of 13.5 µM. This lies in the double-digit micromolar range.

Consider `CC(=O)/C=C1/C(=O)N2C(C(=O)OC(c3ccccc3)c3ccccc3)=C(COC(C)=O)CS[C@H]12` [Compound 28, Benzhydryl 7-[(Z)-acetylmethylene]cephalosporanate], for which the figures for the IC50 in test [1] and in test [2] were 4.27 µM and more than 10 µM, respectively. In addition, on HLE, the “residual HLE activity / inhibition” value is “leveling off and allowing the enzyme to regain its activity”.

As for `CC(=O)OCC1=C(C(=O)OC(c2ccccc2)c2ccccc2)N2C(=O)/C(=C\c3ccccc3)[C@H]2S(=O)(=O)C1` [Compound 12, Benzhydryl 7-[(E)-benzylidene]cephalosporanate sulfone], the IC50 in test [1] was 6 µM; in test [2], more than 10 µM.

Turning to `CC(=O)OCC1=C(C(=O)OC(c2ccccc2)c2ccccc2)N2C(=O)C(=C(Br)Br)[C@H]2SC1` [Compound 13, Benzhydryl 7-[dibromomethylene]cephalosporanate], the IC50 was determined as 0.26 µM in test [1] and 6.42 µM in test [2]. The “residual HLE activity / inhibition” value at HLE is “extremely rapid and efficient inhibitor of HLE”.

Turning to `CC(=O)OCC1=C(C(=O)OC(c2ccccc2)c2ccccc2)N2C(=O)/C(=C/c3ccccn3)[C@H]2SC1` [Compound 20, Benzhydryl 7-[(Z)-(2'-pyridyl)methylene]cephalosporanate], the IC50 in test [1] and in test [2] was more than 10 µM each time.

Take `CC(=O)OCC1=C(C(=O)OC(c2ccccc2)c2ccccc2)N2C(=O)/C(=C/C=O)[C@H]2SC1` [Compound 19, Benzhydryl 7-[(Z)-formylmethylene]cephalosporanate]: the IC50 in test [1] turned out to be 13.9 µM; in test [2], 5.2 µM.

`CC(=O)OCC1=C(C(=O)OC(c2ccccc2)c2ccccc2)N2C(=O)/C(=C/C#N)[C@H]2SC1` [Compound 30, Benzhydryl 7-[(Z)-cyanomethylene]cephalosporanate] returned a 50% inhibitory concentration (IC50) in test [1] of more than 10 µM.

For the compound `CC(=O)OCC1=C(C(=O)OC(c2ccccc2)c2ccccc2)N2C(=O)C(=O)[C@H]2SC1` [Compound 2, Benzhydryl 7-oxocephalosporanate], the IC50 in test [1] and in test [2] was more than 10 µM each time.

Take `CC(=O)OCC1=C(C(=O)OC(c2ccccc2)c2ccccc2)N2C(=O)/C(=C/c3ccccn3)[C@H]2S(=O)(=O)C1` [Compound 21, Benzhydryl 7-[(Z)-(2'-pyridyl)methylene]cephalosporanate sulfone]: the IC50 in test [1] and in test [2] was more than 10 µM in each case.

Take `CC(=O)/C=C1/C(=O)N2C(C(=O)OC(c3ccccc3)c3ccccc3)=C(COC(C)=O)CS(=O)(=O)[C@H]12` [Compound 29, Benzhydryl 7-[(Z)-acetylmethylene]cephalosporanate sulfone]: the IC50 is more than 10 µM in test [1] and 6 µM in test [2].

Take `C=C=C1C(=O)N2C(C(=O)OC(c3ccccc3)c3ccccc3)=C(COC(C)=O)CS[C@H]12` [Compound 7, Benzhydryl 7-vinylidenecephalosporanate]: the IC50 was determined as 9 µM in test [1] and 0.67 µM in test [2].

`CC(=O)OCC1=C(C(=O)OC(c2ccccc2)c2ccccc2)N2C(=O)C(=C=CC(C)(C)C)[C@H]2SC1` [Compound 4, Benzhydryl 7-(t-butylvinylidene)cephalosporanate]: the results for the IC50 in test [1] and in test [2] were more than 10 µM and 5.5 µM, respectively.

In the case of `COC(=O)/C=C1/C(=O)N2C(C(=O)OC(c3ccccc3)c3ccccc3)=C(COC(C)=O)CS(=O)(=O)[C@H]12` [Compound 25, Benzhydryl 7-[(Z)-(methoxycarbonyl)methylene]cephalosporanate sulfone], the IC50 was 8.9 µM in test [1] and more than 10 µM in test [2].

As for `CO[C@H]1C(=O)N2C(C(=O)OC(c3ccccc3)c3ccccc3)=C(COC(C)=O)CS[C@H]12` [Compound 36, reference compound], the half-maximal inhibitory concentration (IC50) in test [1] worked out at 5.35 µM.

For the compound `COC(=O)/C(Br)=C1/C(=O)N2C(C(=O)OC(c3ccccc3)c3ccccc3)=C(COC(C)=O)CS[C@H]12` [Compound 32, Benzhydryl 7-{[(E)-bromo-(Z)-methoxycarbonyl]methylidene} cephalosporanate], 0.21 µM corresponded to half-maximal inhibition in test [1] (IC50).

In the case of `CC(=O)OCC1=C(C(=O)OC(c2ccccc2)c2ccccc2)N2C(=O)/C(=C/C(=O)OC(C)(C)C)[C@H]2S(=O)(=O)C1` [Compound 18, Benzhydryl 7-[(Z)-(t-butoxycarbonyl)methylene]-cephalosporanate sulfone], the IC50 in test [1] was 7.1 µM; in test [2], more than 10 µM.

With `CC(=O)OCC1=C(C(=O)OC(c2ccccc2)c2ccccc2)N2C(=O)/C(=C/c3ccccc3)[C@H]2S(=O)(=O)C1` [Compound 10, Benzhydryl 7-[(Z)-benzylidene]cephalosporanate sulfone], the half-inhibitory concentration (IC50) in test [1] is 8.9 µM; in test [2], more than 10 µM.

The term IC50 denotes the concentration at which inhibition is half-maximal. Lower therefore signals inhibition by little substance.
